Experiments:
[1] = tested on: Tyrosine-protein kinase ABL1 (Homo sapiens), P00519 [F317I]; settings: Compound concentration 1000.0 nM
[2] = biological target: Activin receptor type-2A (Homo sapiens) (UniProt P27037); settings: Compound concentration 1000.0 nM
[3] = biological target: RAC-beta serine/threonine-protein kinase (Homo sapiens) (UniProt P31751); settings: Compound concentration 1000.0 nM
[4] = biological target: 5'-AMP-activated protein kinase catalytic subunit alpha-1 (Homo sapiens) (UniProt Q13131); settings: Compound concentration 1000.0 nM
[5] = biological target: Cyclin-dependent kinase 11A (Homo sapiens) (UniProt Q9UQ88); settings: Compound concentration 1000.0 nM
[6] = biological target: Casein kinase I isoform epsilon (Homo sapiens) (UniProt P49674); settings: Compound concentration 1000.0 nM
[7] = biological target: Epithelial discoidin domain-containing receptor 1 (Homo sapiens) (UniProt Q08345); settings: Compound concentration 1000.0 nM
[8] = biological target: Serine/threonine-protein kinase 17B (Homo sapiens) (UniProt O94768); settings: Compound concentration 1000.0 nM
[9] = tested on: Epidermal growth factor receptor (Homo sapiens), P00533 [UNDEFINED MUTATION]; settings: Compound concentration 1000.0 nM
[10] = tested on: Epidermal growth factor receptor (Homo sapiens), P00533 [L858R]; settings: Compound concentration 1000.0 nM
[11] = biological target: Ephrin type-A receptor 1 (Homo sapiens) (UniProt P21709); settings: Compound concentration 1000.0 nM
[12] = biological target: Ephrin type-B receptor 1 (Homo sapiens) (UniProt P54762); settings: Compound concentration 1000.0 nM
[13] = biological target: Receptor tyrosine-protein kinase erbB-3 (Homo sapiens) (UniProt P21860); settings: Compound concentration 1000.0 nM
[14] = biological target: Receptor tyrosine-protein kinase erbB-4 (Homo sapiens) (UniProt Q15303); settings: Compound concentration 1000.0 nM
[15] = biological target: Mitogen-activated protein kinase 7 (Homo sapiens) (UniProt Q13164); settings: Compound concentration 1000.0 nM
[16] = biological target: Vascular endothelial growth factor receptor 3 (Homo sapiens) (UniProt P35916); settings: Compound concentration 1000.0 nM
Vascular endothelial growth factor receptor 3 (Homo sapiens), sequence (P35916 whole entry): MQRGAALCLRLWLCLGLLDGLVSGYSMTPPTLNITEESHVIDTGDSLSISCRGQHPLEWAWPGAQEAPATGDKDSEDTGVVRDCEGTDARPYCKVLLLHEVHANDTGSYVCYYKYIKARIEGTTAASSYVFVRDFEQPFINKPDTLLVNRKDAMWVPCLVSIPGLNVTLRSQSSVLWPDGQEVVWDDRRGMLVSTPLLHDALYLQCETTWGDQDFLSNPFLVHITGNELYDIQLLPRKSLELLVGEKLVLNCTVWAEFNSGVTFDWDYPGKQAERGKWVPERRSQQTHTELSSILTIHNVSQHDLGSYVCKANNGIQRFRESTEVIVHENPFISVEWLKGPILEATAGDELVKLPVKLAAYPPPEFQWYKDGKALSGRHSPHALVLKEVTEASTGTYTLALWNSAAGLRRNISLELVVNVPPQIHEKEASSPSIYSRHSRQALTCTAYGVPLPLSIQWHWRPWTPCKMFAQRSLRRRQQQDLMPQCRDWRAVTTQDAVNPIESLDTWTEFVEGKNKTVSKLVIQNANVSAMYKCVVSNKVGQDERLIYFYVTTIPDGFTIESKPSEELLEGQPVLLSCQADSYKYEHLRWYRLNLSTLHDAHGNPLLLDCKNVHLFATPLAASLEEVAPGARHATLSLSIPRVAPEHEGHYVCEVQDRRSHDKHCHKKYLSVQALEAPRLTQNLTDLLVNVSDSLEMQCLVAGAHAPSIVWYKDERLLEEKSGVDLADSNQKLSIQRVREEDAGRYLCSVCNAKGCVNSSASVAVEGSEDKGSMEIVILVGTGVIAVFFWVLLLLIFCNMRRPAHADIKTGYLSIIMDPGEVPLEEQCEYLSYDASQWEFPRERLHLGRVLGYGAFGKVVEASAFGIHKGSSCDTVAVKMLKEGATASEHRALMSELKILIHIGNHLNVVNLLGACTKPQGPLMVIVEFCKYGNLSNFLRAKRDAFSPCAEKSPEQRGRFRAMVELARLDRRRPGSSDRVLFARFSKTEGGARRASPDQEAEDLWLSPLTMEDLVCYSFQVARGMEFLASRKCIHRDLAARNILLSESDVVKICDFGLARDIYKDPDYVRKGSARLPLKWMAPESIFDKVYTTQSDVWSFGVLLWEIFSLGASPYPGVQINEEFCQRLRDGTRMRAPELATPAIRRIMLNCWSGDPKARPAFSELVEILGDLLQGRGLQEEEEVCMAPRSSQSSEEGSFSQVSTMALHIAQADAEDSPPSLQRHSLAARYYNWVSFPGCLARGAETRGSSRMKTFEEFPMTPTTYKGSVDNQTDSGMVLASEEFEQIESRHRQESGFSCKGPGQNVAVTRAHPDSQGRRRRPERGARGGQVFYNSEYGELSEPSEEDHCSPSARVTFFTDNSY

[17] = biological target: Tyrosine-protein kinase JAK1 (Homo sapiens) (UniProt P23458); settings: Compound concentration 1000.0 nM
Tyrosine-protein kinase JAK1 (Homo sapiens), sequence (P23458 whole entry): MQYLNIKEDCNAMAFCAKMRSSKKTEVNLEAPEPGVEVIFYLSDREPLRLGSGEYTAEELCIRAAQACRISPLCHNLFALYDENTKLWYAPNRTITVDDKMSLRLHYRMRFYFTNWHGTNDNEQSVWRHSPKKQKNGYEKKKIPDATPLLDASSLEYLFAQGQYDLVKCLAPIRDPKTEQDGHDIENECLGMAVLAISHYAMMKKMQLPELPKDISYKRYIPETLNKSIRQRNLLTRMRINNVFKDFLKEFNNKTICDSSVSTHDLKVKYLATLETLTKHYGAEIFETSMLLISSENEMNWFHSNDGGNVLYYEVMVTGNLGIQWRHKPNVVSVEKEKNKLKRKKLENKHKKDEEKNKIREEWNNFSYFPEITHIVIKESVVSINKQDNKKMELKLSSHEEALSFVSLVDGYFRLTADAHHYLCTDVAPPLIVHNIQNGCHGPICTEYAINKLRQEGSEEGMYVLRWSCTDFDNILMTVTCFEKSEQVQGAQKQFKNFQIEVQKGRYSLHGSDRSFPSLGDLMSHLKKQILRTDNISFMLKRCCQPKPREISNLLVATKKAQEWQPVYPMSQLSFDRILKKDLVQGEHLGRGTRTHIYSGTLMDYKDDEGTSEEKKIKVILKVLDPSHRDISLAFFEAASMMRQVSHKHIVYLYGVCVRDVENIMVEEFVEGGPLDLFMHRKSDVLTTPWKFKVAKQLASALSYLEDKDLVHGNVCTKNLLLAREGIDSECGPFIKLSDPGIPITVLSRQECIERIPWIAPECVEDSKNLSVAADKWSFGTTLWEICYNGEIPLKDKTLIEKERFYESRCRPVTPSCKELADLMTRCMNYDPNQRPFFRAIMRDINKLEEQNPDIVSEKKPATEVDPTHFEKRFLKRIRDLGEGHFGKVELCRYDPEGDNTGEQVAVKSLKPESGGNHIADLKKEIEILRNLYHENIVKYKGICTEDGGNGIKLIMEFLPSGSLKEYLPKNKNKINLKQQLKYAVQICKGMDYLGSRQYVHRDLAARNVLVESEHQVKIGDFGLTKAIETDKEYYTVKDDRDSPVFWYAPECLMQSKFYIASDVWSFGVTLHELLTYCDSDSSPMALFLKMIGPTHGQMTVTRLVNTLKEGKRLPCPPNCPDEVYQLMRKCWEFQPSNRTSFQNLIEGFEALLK

[18] = biological target: Tyrosine-protein kinase JAK3 (Homo sapiens) (UniProt P52333); settings: Compound concentration 1000.0 nM
[19] = biological target: Tyrosine-protein kinase Mer (Homo sapiens) (UniProt Q12866); settings: Compound concentration 1000.0 nM
[20] = biological target: Mitogen-activated protein kinase kinase kinase 10 (Homo sapiens) (UniProt Q02779); settings: Compound concentration 1000.0 nM
[21] = biological target: Phosphorylase b kinase gamma catalytic chain, skeletal muscle/heart isoform (Homo sapiens) (UniProt Q16816); settings: Compound concentration 1000.0 nM
[22] = tested on: Phosphatidylinositol 4,5-bisphosphate 3-kinase catalytic subunit alpha isoform (Homo sapiens), P42336 [I800L]; settings: Compound concentration 1000.0 nM
Phosphatidylinositol 4,5-bisphosphate 3-kinase catalytic subunit alpha isoform (Homo sapiens), P42336 [I800L], sequence (P42336 whole entry I800L, canonical isoform): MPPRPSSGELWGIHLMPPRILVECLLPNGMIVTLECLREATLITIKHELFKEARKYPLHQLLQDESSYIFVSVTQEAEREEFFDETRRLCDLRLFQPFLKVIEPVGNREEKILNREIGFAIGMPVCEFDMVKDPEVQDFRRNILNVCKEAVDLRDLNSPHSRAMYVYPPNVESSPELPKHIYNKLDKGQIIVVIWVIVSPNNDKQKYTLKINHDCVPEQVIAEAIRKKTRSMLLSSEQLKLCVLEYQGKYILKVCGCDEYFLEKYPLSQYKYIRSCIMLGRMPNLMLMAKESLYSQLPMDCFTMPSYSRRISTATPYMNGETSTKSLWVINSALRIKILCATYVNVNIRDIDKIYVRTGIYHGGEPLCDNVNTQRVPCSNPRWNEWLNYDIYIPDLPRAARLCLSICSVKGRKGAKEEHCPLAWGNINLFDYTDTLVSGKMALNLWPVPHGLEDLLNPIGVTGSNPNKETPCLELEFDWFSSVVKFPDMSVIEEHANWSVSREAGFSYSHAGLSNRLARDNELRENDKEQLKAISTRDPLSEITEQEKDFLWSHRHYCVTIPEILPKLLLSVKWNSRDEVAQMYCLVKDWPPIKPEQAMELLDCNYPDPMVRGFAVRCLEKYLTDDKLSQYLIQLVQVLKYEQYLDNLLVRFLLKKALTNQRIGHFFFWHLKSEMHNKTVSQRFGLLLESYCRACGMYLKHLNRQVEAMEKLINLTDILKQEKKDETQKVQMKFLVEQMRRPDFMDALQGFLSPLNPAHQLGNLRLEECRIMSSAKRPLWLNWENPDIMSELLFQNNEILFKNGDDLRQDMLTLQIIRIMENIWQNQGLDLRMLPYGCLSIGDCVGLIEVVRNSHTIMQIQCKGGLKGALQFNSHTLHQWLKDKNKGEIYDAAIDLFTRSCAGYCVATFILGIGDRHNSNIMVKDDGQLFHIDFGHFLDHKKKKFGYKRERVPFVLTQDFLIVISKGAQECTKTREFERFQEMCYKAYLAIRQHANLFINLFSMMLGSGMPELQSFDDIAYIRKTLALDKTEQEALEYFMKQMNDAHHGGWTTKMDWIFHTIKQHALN

[23] = tested on: Phosphatidylinositol 4,5-bisphosphate 3-kinase catalytic subunit alpha isoform (Homo sapiens), P42336 [M1043I]; settings: Compound concentration 1000.0 nM
Phosphatidylinositol 4,5-bisphosphate 3-kinase catalytic subunit alpha isoform (Homo sapiens), P42336 [M1043I], sequence (P42336 whole entry M1043I, canonical isoform): as the sequence (P42336 whole entry I800L, canonical isoform) above, with L800I, M1043I counted along it

[24] = biological target: Phosphatidylinositol 4,5-bisphosphate 3-kinase catalytic subunit delta isoform (Homo sapiens) (UniProt O00329); settings: Compound concentration 1000.0 nM
[25] = biological target: Serine/threonine-protein kinase pim-1 (Homo sapiens) (UniProt P11309); settings: Compound concentration 1000.0 nM
[26] = biological target: Phosphatidylinositol 4-phosphate 5-kinase type-1 alpha (Homo sapiens) (UniProt Q99755); settings: Compound concentration 1000.0 nM
[27] = biological target: cAMP-dependent protein kinase catalytic subunit alpha (Homo sapiens) (UniProt P17612); settings: Compound concentration 1000.0 nM
[28] = biological target: Serine/threonine-protein kinase N1 (Homo sapiens) (UniProt Q16512); settings: Compound concentration 1000.0 nM
Serine/threonine-protein kinase N1 (Homo sapiens), sequence (Q16512 2-942 limits assumed): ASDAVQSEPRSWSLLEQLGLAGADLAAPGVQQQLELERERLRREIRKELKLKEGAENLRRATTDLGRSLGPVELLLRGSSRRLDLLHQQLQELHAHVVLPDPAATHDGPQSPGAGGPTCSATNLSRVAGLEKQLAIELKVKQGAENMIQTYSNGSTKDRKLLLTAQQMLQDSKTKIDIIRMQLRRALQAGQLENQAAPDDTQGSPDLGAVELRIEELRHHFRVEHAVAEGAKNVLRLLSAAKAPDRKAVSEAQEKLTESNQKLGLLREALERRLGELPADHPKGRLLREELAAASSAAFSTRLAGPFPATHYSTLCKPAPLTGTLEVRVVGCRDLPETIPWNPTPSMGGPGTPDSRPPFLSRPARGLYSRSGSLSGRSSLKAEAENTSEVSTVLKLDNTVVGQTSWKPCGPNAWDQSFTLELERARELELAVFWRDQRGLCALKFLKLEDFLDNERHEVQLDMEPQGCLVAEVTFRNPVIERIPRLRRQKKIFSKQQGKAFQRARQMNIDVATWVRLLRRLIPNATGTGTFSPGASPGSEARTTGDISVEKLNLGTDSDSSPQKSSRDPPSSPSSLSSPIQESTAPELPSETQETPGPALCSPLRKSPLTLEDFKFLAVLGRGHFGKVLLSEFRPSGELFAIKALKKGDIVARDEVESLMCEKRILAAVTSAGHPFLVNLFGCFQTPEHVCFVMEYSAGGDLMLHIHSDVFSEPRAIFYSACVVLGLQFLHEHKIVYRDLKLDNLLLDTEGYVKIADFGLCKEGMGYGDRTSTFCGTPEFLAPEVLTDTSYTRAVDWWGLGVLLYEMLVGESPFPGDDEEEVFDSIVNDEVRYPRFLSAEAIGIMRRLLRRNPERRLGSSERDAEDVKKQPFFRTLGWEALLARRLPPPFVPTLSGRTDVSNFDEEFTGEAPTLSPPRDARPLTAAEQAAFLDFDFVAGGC

[29] = biological target: Serine/threonine-protein kinase PLK3 (Homo sapiens) (UniProt Q9H4B4); settings: Compound concentration 1000.0 nM
[30] = biological target: Protein kinase C delta type (Homo sapiens) (UniProt Q05655); settings: Compound concentration 1000.0 nM
[31] = biological target: Protein kinase C iota type (Homo sapiens) (UniProt P41743); settings: Compound concentration 1000.0 nM
[32] = biological target: Protein-tyrosine kinase 2-beta (Homo sapiens) (UniProt Q14289); settings: Compound concentration 1000.0 nM
[33] = biological target: Receptor-interacting serine/threonine-protein kinase 1 (Homo sapiens) (UniProt Q13546); settings: Compound concentration 1000.0 nM
[34] = biological target: Receptor-interacting serine/threonine-protein kinase 4 (Homo sapiens) (UniProt P57078); settings: Compound concentration 1000.0 nM
[35] = biological target: Ribosomal protein S6 kinase alpha-4 (Homo sapiens) (UniProt O75676); settings: Compound concentration 1000.0 nM
[36] = biological target: Ribosomal protein S6 kinase alpha-5 (Homo sapiens) (UniProt O75582); settings: Compound concentration 1000.0 nM
[37] = biological target: Ribosomal protein S6 kinase beta-1 (Homo sapiens) (UniProt P23443); settings: Compound concentration 1000.0 nM
[38] = biological target: Serine/threonine-protein kinase Sgk3 (Homo sapiens) (UniProt Q96BR1); settings: Compound concentration 1000.0 nM
[39] = biological target: TGF-beta receptor type-2 (Homo sapiens) (UniProt P37173); settings: Compound concentration 1000.0 nM
[40] = biological target: Angiopoietin-1 receptor (Homo sapiens) (UniProt Q02763); settings: Compound concentration 1000.0 nM
[41] = biological target: Non-receptor tyrosine-protein kinase TNK1 (Homo sapiens) (UniProt Q13470); settings: Compound concentration 1000.0 nM
[42] = biological target: Wee1-like protein kinase (Homo sapiens) (UniProt P30291); settings: Compound concentration 1000.0 nM
[43] = biological target: 5-hydroxytryptamine receptor 2C (Homo sapiens) (UniProt P28335); settings: Compound concentration 10.0 uM
[44] = biological target: Sodium-dependent serotonin transporter (Homo sapiens) (UniProt P31645); settings: Compound concentration 10.0 uM
[45] = biological target: Kappa-type opioid receptor (Homo sapiens) (UniProt P41145); settings: Compound concentration 10.0 uM

RAC-beta serine/threonine-protein kinase (Homo sapiens), sequence (P31751 whole entry): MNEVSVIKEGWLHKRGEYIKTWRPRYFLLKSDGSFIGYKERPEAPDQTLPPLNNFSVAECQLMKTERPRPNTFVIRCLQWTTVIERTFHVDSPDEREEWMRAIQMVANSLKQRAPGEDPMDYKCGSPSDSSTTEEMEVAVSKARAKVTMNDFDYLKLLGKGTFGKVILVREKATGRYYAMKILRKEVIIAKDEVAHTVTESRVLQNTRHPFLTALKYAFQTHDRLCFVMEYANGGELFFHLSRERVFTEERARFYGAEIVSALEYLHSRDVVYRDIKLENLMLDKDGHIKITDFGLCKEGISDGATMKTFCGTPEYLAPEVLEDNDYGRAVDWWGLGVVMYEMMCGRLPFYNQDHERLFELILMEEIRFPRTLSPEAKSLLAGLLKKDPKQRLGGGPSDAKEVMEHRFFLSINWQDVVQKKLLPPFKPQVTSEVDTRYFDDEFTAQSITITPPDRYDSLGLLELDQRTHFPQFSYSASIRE

C[C@H](c1cccc(C#N)c1)n1cc(Cl)cc(C(N)=O)c1=N [(R)-9s]
inactive: residual activity [1] 89% | residual activity [2] 100% | residual activity [3] 100% | residual activity [4] 92% | residual activity [5] 100% | residual activity [6] 99% | residual activity [7] 98% | residual activity [8] 73% | residual activity [9] 100% | residual activity [10] 86% | residual activity [11] 97% | residual activity [12] 100% | residual activity [13] 92% | residual activity [14] 100% | residual activity [15] 88% | residual activity [16] 80% | residual activity [17] 92% | residual activity [18] 94% | residual activity [19] 96% | residual activity [20] 100% | residual activity [21] 100% | residual activity [22] 56% | residual activity [23] 100% | residual activity [24] 99% | residual activity [25] 100% | residual activity [26] 100% | residual activity [27] 100% | residual activity [28] 65% | residual activity [29] 83% | residual activity [30] 91% | residual activity [31] 100% | residual activity [32] 100% | residual activity [33] 100% | residual activity [34] 71% | residual activity [35] 100% | residual activity [36] 68% | residual activity [37] 100% | residual activity [38] 80% | residual activity [39] 100% | residual activity [40] 96% | residual activity [41] 77% | residual activity [42] 100% | inhibition [43] 9.56% | inhibition [44] 9.99% | inhibition [45] -0.22%

C[C@@H](c1cccc(C#N)c1)n1cc(Cl)cc(C(N)=O)c1=N [(S)-9s]
inactive: residual activity [1] 100% | residual activity [2] 100% | residual activity [3] 93% | residual activity [4] 100% | residual activity [5] 90% | residual activity [6] 100% | residual activity [7] 88% | residual activity [8] 72% | residual activity [9] 100% | residual activity [10] 100% | residual activity [11] 77% | residual activity [12] 94% | residual activity [13] 91% | residual activity [14] 100% | residual activity [15] 88% | residual activity [16] 89% | residual activity [17] 93% | residual activity [18] 100% | residual activity [19] 82% | residual activity [20] 77% | residual activity [21] 100% | residual activity [22] 71% | residual activity [23] 100% | residual activity [24] 100% | residual activity [25] 100% | residual activity [26] 100% | residual activity [27] 100% | residual activity [28] 83% | residual activity [29] 89% | residual activity [30] 77% | residual activity [31] 93% | residual activity [32] 87% | residual activity [33] 100% | residual activity [34] 57% | residual activity [35] 100% | residual activity [36] 74% | residual activity [37] 100% | residual activity [38] 77% | residual activity [39] 100% | residual activity [40] 90% | residual activity [41] 94% | residual activity [42] 100% | inhibition [43] 16.8% | inhibition [44] 14.8% | inhibition [45] 1.2%
